Source: patent publication EP0157637A2, “Heterocyclic compounds” (THE WELLCOME FOUNDATION LIMITED, priority 1984, dated 1985)
Like-named read-outs stand apart in the source and are kept apart here.

Columns and labels:
rats = experiment: maximal electroshock test (MES), anticonvulsant activity in rats; assay type: in vivo; details: for ED50: Rattus norvegicus
Protocol: The anticonvulsant activity of certain compounds of the present invention was determined by a standard maximal electroshock test (MES); that described by L.A. Woodbury and V.D. Davenport, Arch. Int. Pharmacodyn., 1952, 92, 97.

Eimeria tenella = experiment: in vivo anticoccidial activity against Eimeria tenella; details: Concentration 400 ppm, cleared/total
Protocol: The in vivo activity of two compounds of the present invention and a compound disclosed in US Patent No. 4189485 were determined against Eimeria tenella by the method disclosed in European Patent No. 0021293.

LD50 in the rat = details: in vivo, po, approximate
[1] = ip, rats, i.p., read-out: MES ED50 (mg/kg) i.p.
[2] = po, rats, p.o., read-out: MES ED50 (mg/kg) p.o.

| SMILES | ED50 (rats; [1]) | ED50 (rats; [2]) | also measured |
| --- | --- | --- | --- |
| COCNc1ncnc2c1ncn2Cc1ccccc1F [Compound 31, 9-(2-Fluorobenzyl)-6-methoxymethylamino-9H-purine] |  |  | MES, % at 6.25mg/kg (rats; rats, 6.25mg/kg, printed in the i.p. column in place of an ED50): (17% at 6.25mg/kg) |
| Fc1ccccc1Cn1cnc2c(NC3CC3)ncnc21 [Compound 3, 6-cyclopropylamino-9-(2-fluorobenzyl)-9H-purine] | 5 ± 0.4 mg/kg | 7.8 ± 0.8 mg/kg |  |
| COCN(C)c1ncnc2c1ncn2Cc1ccccc1F [Compound 30, 9-(2-Fluorobenzyl)-6-(N-methoxymethyl-N-methylamino)-9H-purine] | 5 mg/kg |  |  |
| Fc1ccccc1Cn1cnc2c(NCC3CC3)ncnc21 [Compound 6, 6-cyclopropylmethylamino-9-(2-fluorobenzyl)-9H-purine] | 4.3 ± 0.9 mg/kg | 6.3 ± 1 mg/kg |  |
| CNc1ncnc2c1ncn2Cc1ccccc1F [Compound 1, 9-(2-Fluorobenzyl)-6-methylamino-9H-purine] |  |  | ED50 (rats; ip, read-out: MES ED50 (mg/kg) i.p.): 1.7 ± 0.4 mg/kg; ED50 (rats; po, read-out: MES ED50 (mg/kg) p.o.): 2.5 ± 0.4 mg/kg; E.tenella cleared (Eimeria tenella): 2/5; LD50 (LD50 in the rat): ~1000 mg/kg |
| CCN(C)c1ncnc2c1ncn2Cc1ccccc1F [Compound 8] | 2.9 ± 0.3 mg/kg | 6 ± 0.5 mg/kg |  |
| CN(c1ncnc2c1ncn2Cc1ccccc1F)C1CC1 [Compound 7, 9-(2-fluorobenzyl)-6-(N-methylcyclopropylamino)-9H-purine] | 6.8 ± 0.8 mg/kg |  |  |
| CN(C)c1ncnc2c1ncn2Cc1c(F)cccc1F [Compound 14, ^g-(2,6-difluorobenzyl)-6-dimethylamino-9H-purine] | 2.2 ± 0.2 mg/kg | 3.8 ± 0.6 mg/kg |  |
| CC(C)Nc1ncnc2c1ncn2Cc1ccccc1F [Compound 5, 9-(2-fluorobenzyl)-6-isopropylamino-9H-purine] | 5.8 ± 0.6 mg/kg |  |  |
| CCN(CC)c1ncnc2c1ncn2Cc1ccccc1F [Compound 10, 6-diethylamino-9-(2-fluorobenzyl)-9H-purine] | 4.2 ± 0.5 mg/kg | 5.9 ± 0.6 mg/kg |  |
| Fc1cccc(F)c1Cn1cnc2c(NC3CC3)ncnc21 [Compound 12, 6-cyclopropylamino-9-(2,6-difluorobenzyl)-9H-purine] | 4 mg/kg | 12.5 mg/kg |  |
| CNc1ncnc2c1ncn2Cc1cc(F)ccc1F [Compound 15, 9-(2,5-Difluorobenzyl)-6-methylamino-9H-purine] | 4 ± 0.6 mg/kg | 7 ± 1 mg/kg |  |
| Fc1ccccc1Cn1cnc2c(NC3CCCC3)ncnc21 [Compound 11, 6-cyclopentylamino-9-(2-fluorobenzyl)-9H-purine] | 8 ± 1 mg/kg |  |  |
| CCCNc1ncnc2c1ncn2Cc1ccccc1F [Compound 9, 9-(2-fluorobenzyl)-6-propylamino-9H-purine] | 5.1 ± 0.5 mg/kg | 4.6 ± 1 mg/kg |  |
| CCNc1ncnc2c1ncn2Cc1ccccc1F [Compound 4, 6-ethylamino-9-(2-fluorobenzyl)-9H-purine] | 4.9 ± 0.5 mg/kg |  |  |
| CNc1ncnc2c1ncn2Cc1c(F)cccc1F [Compound 13] | 2 mg/kg |  |  |
| Nc1ncnc2c1ncn2Cc1cc(F)ccc1F [Compound 28, 6-amino-9-(2,5-difluorobenzyl)-9H-purine] | 5 mg/kg |  |  |
| O=C1NC(=O)C(c2ccccc2)(c2ccccc2)N1 [phenytoin (Dilantin), 5,5-diphenylhydantoin, reference compound] | 10 ± 2 mg/kg | 20 ± 3 mg/kg |  |
| Nc1ncnc2c1ncn2Cc1ccccc1F [Compound 16, 6-Amino-9-(2-fluorobenzyl)-9H-purine] | 2.4 ± 0.6 mg/kg | 2.2 ± 0.4 mg/kg |  |
| CN(C)c1ncnc2c1ncn2Cc1ccccc1F [Compound 2, 6-dimethylamino-9-(2-fluorobenzyl)-9H-purine] | 8.8 ± 1.7 mg/kg |  | E.tenella cleared (Eimeria tenella): 0/5 |
| OCNc1ncnc2c1ncn2Cc1ccccc1F [Compound 29, 9-(2-Fluorobenzyl)-6-hydroxymethylamino-9H-purine] | 4 mg/kg |  |  |
| Nc1ncnc2c1ncn2Cc1c(F)cccc1F [Compound 27, 6-amino-9-(2,6-difluorobenzyl)-9H-purine] | 9 mg/kg |  |  |
